According to patent US8748434B2 (Hoffman-La Roche Inc., priority 2012, dated 2014):
pEC50: −log10 of the molar value.

molecular target: T1, human GPBAR1 receptor (Homo sapiens, UniProt Q8TDU6); test: functional cAMP assay in CHO-dhfr(minus) cells expressing human GPBAR1 receptors; format: cell-based; conditions: CHO-dhfr(minus) cells expressing human GPBAR1, compounds incubated 30 min at 30° C.
T1 construct: expressed in transfected cells
T1 sequence (Q8TDU6 1-330): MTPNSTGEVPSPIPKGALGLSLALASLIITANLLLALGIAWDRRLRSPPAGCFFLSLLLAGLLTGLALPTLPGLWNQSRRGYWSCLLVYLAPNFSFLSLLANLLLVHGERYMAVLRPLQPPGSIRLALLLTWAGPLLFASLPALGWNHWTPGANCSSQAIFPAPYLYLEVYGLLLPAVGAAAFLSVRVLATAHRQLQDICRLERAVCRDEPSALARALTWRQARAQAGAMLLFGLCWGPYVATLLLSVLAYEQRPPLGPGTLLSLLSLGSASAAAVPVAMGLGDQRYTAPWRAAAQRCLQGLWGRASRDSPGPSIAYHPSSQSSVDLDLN
Excerpt: The cDNA of the human GPBAR1 receptor (Genbank: NM 170699 with the exception of a silent C:G mutation at position 339 from the start codon) was amplified by polymerase chain reaction (PCR) from human cDNA and inserted into pCineo (Promega) by standard methods (Current Protocols in Molecular Biology, Wiley Press, ed. Ausubel et al.). The final clone was verified by DNA sequence analysis. The plasmid was transfected into CHO cells deficient in dihydrofolate reductase activity (CHO-dhfr−) using Lipofectamine plus (Invitrogen). Clones were isolated in limited dilution conditions and identified by activities in the cAMP assay using lithocholic acid as agonist. A clonal cell line displaying the greatest activity in cAMP increases was selected and identified as giving consistently good responses for up to at least 20 passages.
CHO-dhfr(minus) cells expressing human GPBAR1 receptors are seeded 17-24 hours prior to the experiment 50.000 cells per well in a black 96 well plate with flat clear bottom (Corning Costar #3904) in DMEM (Invitrogen No. 31331), 1×HT supplement, with 10% fetal calf serum and incubated at 5% CO2 and 37° C. in a humidified incubator. The growth medium was exchanged with Krebs Ringer Bicarbonate buffer with 1 mM IBMX and incubated at 30° C. for 30 min. Compounds were added to a final assay volume of 100 μl and incubated for 30 min at 30° C. The assay was stopped by the addition of 50 μl lysis reagent (Tris, NaCl, 1.5% Triton X100, 2.5% NP40, 10% NaN3) and 50 μl detection solutions (20 μM mAb Alexa700-cAMP 1:1, and 48 μM Ruthenium-2-AHA-cAMP) and shaked for 2 h at room temperature. The time-resolved energy transfer is measured by a TRF reader (Evotec Technologies GmbH, Hamburg Germany), equipped with a ND:YAG laser as excitation source. The plate is measured twice with the excitation at 355 nm and at the emission with a delay of 100 ns and a gate of 100 ns, total exposure time 10 s at 730 (bandwidth 30 nm) or 645 nm (bandwidth 75 nm), respectively. The measured signal at 730 nm has to be corrected for the ruthenium background, the direct excitation of Alexa and the buffer control. The FRET signal is calculated as follows: FRET=T730−Alexa730−P(T645−B645) with P=R^u730−B730/Ru645−B645, where T730 is the test well measured at […], T645 is the test well measured at 645 nm, B730 and B645 are the buffer controls at 730 nm and 645 nm, respectively. cAMP content is determined from the function of a standard curve spanning from 10 μM to 0.13 nM cAMP.
EC50 values were determined using Activity Base analysis (ID Business Solution, Limited). The EC50 values for a wide range of bile acids generated from this assay were in agreement with the values published in the scientific literature. Specificity for GPBAR1 was tested in non-transfected CHO cells in the same assay as above.

pEC50	SMILES
6.78	COc1cc(F)ccc1-c1cc(Cl)nnc1N(C)C(=O)c1cc(C(F)(F)F)cc(S(C)(=O)=O)c1 [Example 1, N-[6-Chloro-4-(4-fluoro-2-methoxy-phenyl)-pyridazin-3-yl]-3-methanesulfonyl-N-methyl-5-trifluoromethyl-benzamide]
7.12	COc1cc(F)ccc1-c1ccnnc1N(C)C(=O)c1cc(C(F)(F)F)cc(S(C)(=O)=O)c1 [Example 2, N-[4-(4-Fluoro-2-methoxy-phenyl)-pyridazin-3-yl]-3-methanesulfonyl-N-methyl-5-trifluoromethyl-benzamide]
6.75	COc1cc(F)ccc1-c1cc(C)nnc1N(C)C(=O)c1cc(C(F)(F)F)cc(S(C)(=O)=O)c1 [Example 3, N-[4-(4-Fluoro-2-methoxy-phenyl)-6-methyl-pyridazin-3-yl]-3-methanesulfonyl-N-methyl-5-trifluoromethyl-benzamide]
5.66	Cc1ccccc1-c1cc(Cl)nnc1N(C)C(=O)c1cc(C(F)(F)F)cc(S(C)(=O)=O)c1 [Example 4, N-(6-Chloro-4-o-tolyl-pyridazin-3-yl)-3-methanesulfonyl-N-methyl-5-trifluoromethyl-benzamide]
5.57	CN(C(=O)c1cc(C(F)(F)F)cc(S(C)(=O)=O)c1)c1nnc(Cl)cc1-c1ccccc1 [Example 5, N-(6-Chloro-4-phenyl-pyridazin-3-yl)-3-methanesulfonyl-N-methyl-5-trifluoromethyl-benzamide]
6.37	CN(C(=O)c1cc(C(F)(F)F)cc(S(=O)(=O)N2CCOCC2)c1)c1nnc(Cl)cc1-c1ccccc1 [Example 6]
6.52	CN(C(=O)c1cc(C(F)(F)F)cc(C(F)(F)F)c1)c1nnc(Cl)cc1-c1ccccc1 [Example 7, N-(6-Chloro-4-phenyl-pyridazin-3-yl)-N-methyl-3,5-bis-trifluoromethyl-benzamide]
5.82	COc1ncccc1-c1cc(Cl)nnc1N(C)C(=O)c1cc(C(F)(F)F)cc(S(C)(=O)=O)c1 [Example 8, N-[6-Chloro-4-(2-methoxy-pyridin-3-yl)-pyridazin-3-yl]-3-methanesulfonyl-N-methyl-5-trifluoromethyl-benzamide]
5.09	Cc1ccccc1-c1cc(Cl)nnc1N(C)C(=O)c1cc(C(F)(F)F)cc(S(=O)(=O)CCCC(=O)O)c1 [Example 10, 4-{3-[(6-Chloro-4-o-tolyl-pyridazin-3-yl)-methyl-carbamoyl]-5-trifluoromethyl-benzenesulfonyl}-butyric acid]
5.62	CN(C(=O)c1cc(C(F)(F)F)cc(S(C)(=O)=O)c1)c1nnc(Cl)cc1-c1cccnc1OCC(F)(F)F [Example 11, N-{6-Chloro-4-[2-(2,2,2-trifluoro-ethoxy)-pyridin-3-yl]-pyridazin-3-yl}-3-methanesulfonyl-N-methyl-5-trifluoromethyl-benzamide]
6.80	CN(C(=O)c1cc(C(F)(F)F)cc(S(C)(=O)=O)c1)c1nnccc1-c1cccnc1OCC(F)(F)F [Example 12, 3-Methanesulfonyl-N-methyl-N-{4-[2-(2,2,2-trifluoro-ethoxy)-pyridin-3-yl]-pyridazin-3-yl}-5-trifluoromethyl-benzamide]
5.41	Cc1cc(-c2cccnc2OCC(F)(F)F)c(N(C)C(=O)c2cc(C(F)(F)F)cc(S(C)(=O)=O)c2)nn1 [Example 13, 3-Methanesulfonyl-N-methyl-N-{6-methyl-4-[2-(2,2,2-trifluoro-ethoxy)-pyridin-3-yl]-pyridazin-3-yl}-5-trifluoromethyl-benzamide]
6.64	COc1cc(F)ccc1-c1cnncc1N(C)C(=O)c1cc(C(F)(F)F)cc(S(C)(=O)=O)c1 [Example 14, N-[5-(4-Fluoro-2-methoxy-phenyl)-pyridazin-4-yl]-3-methanesulfonyl-N-methyl-5-trifluoromethyl-benzamide]
6.37	Cc1ccccc1-c1cnncc1N(C)C(=O)c1cc(C(F)(F)F)cc(S(C)(=O)=O)c1 [Example 15, 3-Methanesulfonyl-N-methyl-N-(5-o-tolyl-pyridazin-4-yl)-5-trifluoromethyl-benzamide]
6.18	Cc1ccccc1-c1cnncc1N(C)C(=O)c1cc(Cl)cc(S(C)(=O)=O)c1 [Example 16, 3-Chloro-5-methanesulfonyl-N-methyl-N-(5-o-tolyl-pyridazin-4-yl)-benzamide]
6.11	Cc1ccccc1-c1cnncc1N(C)C(=O)c1cc(C(F)(F)F)cc(S(=O)(=O)CCCC(=O)OC(C)(C)C)c1 [Example 17, 4-{3-[Methyl-(5-o-tolyl-pyridazin-4-yl)-carbamoyl]-5-trifluoromethyl-benzenesulfonyl}-butyric acid tert-butyl ester]
< 5.00	Cc1ccccc1-c1cnncc1N(C)C(=O)c1cc(C(F)(F)F)cc(S(=O)(=O)CCCC(=O)O)c1 [Example 18, 4-{3-[Methyl-(5-o-tolyl-pyridazin-4-yl)-carbamoyl]-5-trifluoromethyl-benzenesulfonyl}-butyric acid]
5.83	Cc1ccccc1-c1ncncc1N(C)C(=O)c1cc(C(F)(F)F)cc(C(F)(F)F)c1 [Example 19, N-Methyl-N-(4-o-tolyl-pyrimidin-5-yl)-3,5-bis-trifluoromethyl-benzamide]
